Test results from ChEMBL document CHEMBL1129358, “Esters and amides of 6-(chloromethyl)-2-oxo-2H-1-benzopyran-3-carboxylic acid as inhibitors of alpha-chymotrypsin: significance of the "aromatic" nature of the novel ester-type coumarin for strong inhibitory activity” (J Med Chem, 1996).
pKi: −log10 of the molar value. Calls of active or inactive are those of the source. No cut-off for these calls is given here.

Tests used:
[1] = molecular target: T1, Neutrophil elastase (Homo sapiens) (UniProt P08246); assay: Ratio between k observed and KI of Human leukocyte elastase (HEL);[…]
T1 sequence (whole entry): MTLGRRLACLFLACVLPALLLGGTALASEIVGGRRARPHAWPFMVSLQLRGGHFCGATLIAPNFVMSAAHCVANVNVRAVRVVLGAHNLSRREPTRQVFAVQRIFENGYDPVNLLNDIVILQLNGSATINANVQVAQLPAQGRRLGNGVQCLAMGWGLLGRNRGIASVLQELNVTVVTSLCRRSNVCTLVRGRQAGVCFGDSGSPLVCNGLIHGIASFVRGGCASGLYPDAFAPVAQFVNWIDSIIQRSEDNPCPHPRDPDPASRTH

[2] = molecular target: Chymotrypsinogen A (Bos taurus) (UniProt P00766); assay: Ratio between k inactivation and KI of alpha-chymotrypsin
[3] = molecular target: Chymotrypsinogen A (Bos taurus, UniProt P00766); assay: Compound was tested for the binding affinity against alpha-chymotrypsin
[4] = molecular target: Chymotrypsinogen A (Bos taurus) (UniProt P00766); assay: Compound was tested for the Inactivation of alpha-chymotrypsin
[5] = molecular target: Chymotrypsinogen A (Bos taurus) (UniProt P00766); assay: Ratio between k inactivation and KI of alpha-chymotrypsin; No inhibition
[6] = tested on: alpha-chymotrypsin (Bos taurus); assay: Ratio between k observed and KI of bovine alpha-chymotrypsin at 20 degree C
[7] = molecular target: T1, Neutrophil elastase (Homo sapiens); assay: Ratio between k observed and KI of Human leukocyte elastase (HEL)

Structure (SMILES)	K obs / 1 [1]	K inact/Ki [2] [M⁻¹ s⁻¹]	further results
Cc1cccc(OC(=O)c2cc3cc(CCl)ccc3oc2=O)c1	inactive	71800	–
C=CCOC(=O)c1cc2cc(CCl)ccc2oc1=O	inactive	424	pKi [3]: 4.48; K inact [4]: 0.014 s⁻¹
CCOC(=O)c1cc2cc(CCl)ccc2oc1=O	inactive	220	pKi [3]: 4.23; K inact [4]: 0.013 s⁻¹
O=C(O)c1cc2cc(CCl)ccc2oc1=O	inactive	–	K inact/Ki [5]: inactive
CNC(=O)c1cc2cc(CCl)ccc2oc1=O	inactive	–	K inact/Ki [5]: inactive
O=c1ccc2cc(CBr)ccc2o1	–	–	K obs / 1 [6]: 12.5 M⁻¹ s⁻¹
CC(C)OC(=O)c1cc2cc(CCl)ccc2oc1=O	inactive	687	pKi [3]: 4.80; K inact [4]: 0.011 s⁻¹
Cc1ccc(OC(=O)c2cc3cc(CCl)ccc3oc2=O)cc1	inactive	685	–
CCCCCNC(=O)c1cc2cc(CCl)ccc2oc1=O	inactive	–	K inact/Ki [5]: inactive
COC(=O)C(Cc1ccccc1)NC(=O)c1cc2cc(CCl)ccc2oc1=O (stereo unspecified)	inactive	80	–
O=C(Oc1ccccc1Cl)c1cc2cc(CCl)ccc2oc1=O	–	48100	K obs / 1 [7]: 23 M⁻¹ s⁻¹; pKi [3]: 6.10; K inact [4]: 0.038 s⁻¹
COC(=O)c1cc2cc(CCl)ccc2oc1=O	inactive	110	–
O=C(Oc1ccc(I)cc1)c1cc2cc(CCl)ccc2oc1=O	inactive	1780	–
CC(C)NC(=O)c1cc2cc(CCl)ccc2oc1=O	inactive	–	K inact/Ki [5]: inactive
C=CCNC(=O)c1cc2cc(CCl)ccc2oc1=O	inactive	80	–
O=C(NCc1ccccc1)c1cc2cc(CCl)ccc2oc1=O	–	24	K obs / 1 [7]: 58 M⁻¹ s⁻¹

Structure (SMILES)	K obs / 1 [1]	K inact/Ki [2] [M⁻¹ s⁻¹]	further results
CCCCCCCCCCNC(=O)c1cc2cc(CCl)ccc2oc1=O	inactive	–	–
O=C(Nc1ccccc1)c1cc2cc(CCl)ccc2oc1=O	inactive	32	–
Cc1ccc2oc(=O)c(C(=O)Oc3ccccc3)cc2c1	–	–	K obs / 1 [7]: 330 M⁻¹ s⁻¹; K inact/Ki [5]: inactive
O=C(Oc1cccc(I)c1)c1cc2cc(CCl)ccc2oc1=O	–	72100	K obs / 1 [7]: 85 M⁻¹ s⁻¹
O=C(Oc1cccc([N+](=O)[O-])c1)c1cc2cc(CCl)ccc2oc1=O	–	11300	K obs / 1 [7]: 500 M⁻¹ s⁻¹
COC(=O)CNC(=O)c1cc2cc(CCl)ccc2oc1=O	inactive	12	–
CCCCCOC(=O)c1cc2cc(CCl)ccc2oc1=O	inactive	12	–
O=C(Oc1ccccc1)c1cc2cc(CCl)ccc2oc1=O	–	100000	K obs / 1 [7]: 23 M⁻¹ s⁻¹; pKi [3]: 6.47; K inact [4]: 0.034 s⁻¹
O=C(Oc1ccc(Cl)cc1)c1cc2cc(CCl)ccc2oc1=O	inactive	330	–
O=C(Oc1ccccc1I)c1cc2cc(CCl)ccc2oc1=O	–	80000	K obs / 1 [7]: 85 M⁻¹ s⁻¹; pKi [3]: 6.60; K inact [4]: 0.02 s⁻¹
Cc1ccccc1OC(=O)c1cc2cc(CCl)ccc2oc1=O	inactive	114000	pKi [3]: 6.42; K inact [4]: 0.043 s⁻¹
O=C(Oc1cccc(Cl)c1)c1cc2cc(CCl)ccc2oc1=O	–	763000	K obs / 1 [7]: 630 M⁻¹ s⁻¹
O=C(NCCc1ccccc1)c1cc2cc(CCl)ccc2oc1=O	inactive	6	–
Cc1cc(OC(=O)c2cc3cc(CCl)ccc3oc2=O)ccc1Cl	–	7550	K obs / 1 [7]: 90 M⁻¹ s⁻¹
O=C(OCc1ccccc1)c1cc2cc(CCl)ccc2oc1=O	inactive	186	–
CCCCCCCCOC(=O)c1cc2cc(CCl)ccc2oc1=O	inactive	190	–
